Source: patent US20110217265A1, “Screening for Inhibitors of HCV Amphipathic Helix (AH) Function” (priority 2008, published 2011)

How the values were obtained:
Huh7.5 cells = test: Alamar Blue cell viability assay; format: cell-based, human
Method: Antiviral Assays of Compounds. Subconfluent Huh7.5 cells were trypsinized and collected by centrifugation at 700 g for 5 min. The cells were then washed three times in ice-cold RNasefree PBS buffer (BioWhittaker) and resuspended at 1.5×10^7 cells·ml^−1 in PBS buffer. Wild-type FL-J6/JFH-5′C19Rluc2AUbi and Bart79I-luc RNAs for electroporation were generated by in vitro transcription of XbaI (FL-J6/JFH-5′C19Rluc2AUbi) and ScaI (Bart791-luc)-linearized DNA templates using the T7 MEGAscript kit (Ambion), followed by phenol-chloroform purification and DEPC water suspension, 5 μg of RNA were mixed with 400 μl of washed Huh7.5 cells in a 2-mm-gap cuvette (BTX) and immediately pulsed (0.82 kV (FL-J6/JFH-5′C19Rluc2AUbi) and 0.68 kV (Bart79I-luc), five […] pulses) with a BTX-830 electroporator. After 10 min recovery at 25° C., pulsed cells were diluted into 20 ml of pre-warmed growth medium. Cells from several electroporations were pooled to a common stock and seeded in 96-well plates (17,000-20,000 cells per well). After 24 hr, compounds were added to the cells and media changes were performed daily with fresh compounds. After 72 hr of treatment, cells were incubated for 2 hr at 37° C. in the presence of 10% Alamar Blue reagent (TREK Diagnostic Systems) to assess for cytotoxicity. […] The signal was normalized relative to untreated samples. Viral RNA replication was determined using Renilla (FL-J6/JFH-5′C19Rluc2AUbi) or firefly (Bart791-luc) luciferase assays, according to the manufacturer's (Promega) directions. The same samples subjected to the viability assay described below were analyzed in this assay. According to the manufacturer protocol, cells were washed with PBS buffer and shaken at room temperature for 15 min in 20 μl of lysis buffer. Reporter assays were performed directly in the wells of the culture plates by injecting 100 μl of the assay substrate into each well. Luminescence was measured over 10 seconds with a 2-second delay using a Berthold LB 96 V luminometer. Signal was normalized relative to untreated samples or samples grown in the presence of the corresponding concentration of DMSO. Experiments were repeated three times, each time with 4 replicates.

hERG = hERG (Homo sapiens, UniProt Q12809); test: hERG IC50
Sequence of hERG (Q12809 whole entry): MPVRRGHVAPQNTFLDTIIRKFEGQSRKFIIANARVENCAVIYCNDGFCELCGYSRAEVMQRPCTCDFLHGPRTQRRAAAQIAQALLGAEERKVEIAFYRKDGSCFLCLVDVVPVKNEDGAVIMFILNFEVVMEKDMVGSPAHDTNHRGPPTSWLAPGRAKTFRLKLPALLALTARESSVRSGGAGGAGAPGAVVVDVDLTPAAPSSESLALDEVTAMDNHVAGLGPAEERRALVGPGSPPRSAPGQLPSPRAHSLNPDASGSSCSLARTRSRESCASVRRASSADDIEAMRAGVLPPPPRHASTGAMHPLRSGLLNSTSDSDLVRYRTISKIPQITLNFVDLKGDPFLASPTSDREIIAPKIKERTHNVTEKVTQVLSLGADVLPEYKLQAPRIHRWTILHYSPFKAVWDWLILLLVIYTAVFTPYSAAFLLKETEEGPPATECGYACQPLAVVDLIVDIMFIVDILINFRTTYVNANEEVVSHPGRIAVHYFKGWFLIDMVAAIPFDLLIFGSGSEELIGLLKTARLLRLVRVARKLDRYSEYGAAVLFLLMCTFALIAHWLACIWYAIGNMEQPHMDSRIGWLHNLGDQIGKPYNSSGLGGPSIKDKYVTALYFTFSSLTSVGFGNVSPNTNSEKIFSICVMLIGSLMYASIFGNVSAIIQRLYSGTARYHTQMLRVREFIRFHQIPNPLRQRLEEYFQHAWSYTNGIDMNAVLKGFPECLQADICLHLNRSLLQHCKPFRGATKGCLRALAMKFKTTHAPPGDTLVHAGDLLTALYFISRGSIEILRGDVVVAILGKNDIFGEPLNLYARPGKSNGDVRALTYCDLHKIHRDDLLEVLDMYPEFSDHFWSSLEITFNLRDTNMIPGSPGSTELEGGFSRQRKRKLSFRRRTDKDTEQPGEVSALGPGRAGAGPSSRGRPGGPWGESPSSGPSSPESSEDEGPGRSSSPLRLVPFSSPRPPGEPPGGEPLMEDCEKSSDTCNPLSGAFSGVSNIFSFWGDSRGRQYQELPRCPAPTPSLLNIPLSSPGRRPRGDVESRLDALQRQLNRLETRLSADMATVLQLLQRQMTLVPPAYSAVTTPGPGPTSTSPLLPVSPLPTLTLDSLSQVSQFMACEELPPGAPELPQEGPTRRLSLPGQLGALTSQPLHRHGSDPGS

2a HCV RNA replicon = 2a HCV RNA replicon assay (FL-J6/JFH-5'C19Rluc2AUbi, luciferase); format: cell-based, Hepatitis C Virus genotype 2a; conditions: Hepatitis C virus, read-out: 2a (%) Percent of virus activity remaining in the presence of the compound
Source text: Plasmids. Bart79I, a high-efficiency subgenomic replicon of HCV (28), harbors the neomycin resistance gene (neo) and the HCV nonstructural proteins. The Bart-Luciferase plasmid, Bart79I-luc, was cloned from the Bart791 parent (29) and the pGL3-Basic parent (Promega). In brief, a NotI site was introduced after the 15th amino acid of Core in Bart791 using PCR mutagenesis. The plasmid pcDNA3.1-NS4B, which encodes the Con1 NS4B sequence and was used to study the protein stability of the wild type and mutant NS4Bs, was described previously. To introduce the M2 mutation into the 4BAH2 of plasmids encoding HCV replicons or NS4B, the nucleotide sequence GCG that encodes for alanine at NS4B amino acid position 51 was changed to GAG (encoding for glutamate) and the nucleotide sequence TGG that encodes for tryptophan at amino acid position 55 was changed to GAT (encoding for aspartate) through the use of Quick-ChangeTMXL site-directed mutagenesis kit (Stratagene, La Jolla, Calif.) as described by the manufacturer and confirmed by sequencing. FL-J6/JFH-5′C19Rluc2AUbi, which is a monocistronic, full-length HCV genome that expresses Renilla luciferase (Rluc) and was derived from the previously described infectious genotype 2a HCV genome J6/JFH1.
Antiviral Assays of Compounds. Subconfluent Huh7.5 cells were trypsinized and collected by centrifugation at 700 g for 5 min. The cells were then washed three times in ice-cold RNasefree PBS buffer (BioWhittaker) and resuspended at 1.5×10^7 cells·ml^−1 in PBS buffer. Wild-type FL-J6/JFH-5′C19Rluc2AUbi and Bart79I-luc RNAs for electroporation were generated by in vitro transcription of XbaI (FL-J6/JFH-5′C19Rluc2AUbi) and ScaI (Bart791-luc)-linearized DNA templates using the T7 MEGAscript kit (Ambion), followed by phenol-chloroform purification and DEPC water suspension, 5 μg of RNA were mixed with 400 μl of washed Huh7.5 cells in a 2-mm-gap cuvette (BTX) and immediately pulsed (0.82 kV (FL-J6/JFH-5′C19Rluc2AUbi) and 0.68 kV (Bart79I-luc), five […] pulses) with a BTX-830 electroporator. After 10 min recovery at 25° C., pulsed cells were diluted into 20 ml of pre-warmed growth medium. Cells from several electroporations were pooled to a common stock and seeded in 96-well plates (17,000-20,000 cells per well). After 24 hr, compounds were added to the cells and media changes were performed daily with fresh compounds. After 72 hr of treatment, cells were incubated for 2 hr at 37° C. in the presence of 10% Alamar Blue reagent (TREK Diagnostic Systems) to assess for cytotoxicity. Plates were then scanned and fluorescence was detected by using a FLEXstation II 384 (Molecular Devices). The signal was normalized relative to untreated samples. Viral RNA replication was determined using Renilla (FL-J6/JFH-5′C19Rluc2AUbi) or firefly (Bart791-luc) luciferase assays, according to the manufacturer's (Promega) directions. The same samples subjected to the viability assay described below were analyzed in this assay. According to the manufacturer protocol, cells were washed with PBS buffer and shaken at room temperature for 15 min in 20 μl of lysis buffer. Reporter assays were performed directly in the wells of the culture plates by injecting 100 μl of the assay substrate into each well. Luminescence was measured over 10 seconds with a 2-second delay using a Berthold LB 96 V luminometer. Signal was normalized relative to untreated samples or samples grown in the presence of the corresponding concentration of DMSO. Experiments were repeated three times, each time with 4 replicates.

HCV 1b RNA replicon = test: 1b HCV RNA replicon assay, Huh7 cell line with stable luciferase reporter; format: cell-based, Hepatitis C Virus genotype 1b; conditions: Huh7, stable LUC reporter

Compound | Cell Viability (%), alamar blue (Huh7.5 cells; 5 μM) [%] | Cell Viability (%), alamar blue (Huh7.5 cells; 10 μM) [%] | IC50 (hERG) [µM] | activity at 5 µM (2a HCV RNA replicon) [%] | activity at 10 µM (2a HCV RNA replicon) [%] | IC50 (HCV 1b RNA replicon; Hepatitis C virus, Huh-7) [µM] | 1b assay IC50 (HCV 1b RNA replicon)
CC(C)CN(C)c1nc(N)c(C(=O)Nc2cccnc2)nc1Cl.Cl [ID 202, 3-amino-6-chloro-5-(isobutyl(methyl)amino)-N-(pyridin-3-yl)pyrazine-2-carboxamide hydrochloride] | 48 | 43 | 1.5 | 6 | 4 | – | –
CC(C)CN(C)c1nc(N)c(C(=O)NC2CCCNC2)nc1Cl.O=C(O)C(F)(F)F (centres unmarked) [ID 312, 3-amino-6-chloro-5-(isobutyl(methyl)amino)-N-(piperidin-3-yl)pyrazine-2-carboxamide 2,2,2-trifluoroacetate] | 76 | 53 | 4 | 21 | 9 | 44 | –
Cc1ccncc1NC(=O)c1nc(Cl)c(N2CCCCC2)nc1N [ID 415, 3-amino-6-chloro-N-(4-methylpyridin-3-yl)-5-(piperidin-1-yl)pyrazine-2-carboxamide 2,2,2-trifluoroacetate] | 71 | 65 | – | 27 | 10 | – | inactive
Cc1ccncc1NC(=O)c1nc(Cl)c(NCC(C)C)nc1N [ID 464, 3-amino-6-chloro-5-(isobutylamino)-N-(4-methylpyridin-3-yl)pyrazine-2-carboxamide 2,2,2-trifluoroacetate] | 95 | 85 | > 10 | 64 | 44 | – | –
Cc1ccncc1NC(=O)c1nc(Cl)c(N(C)c2ccccc2)nc1N [ID 465, 3-amino-6-chloro-5-(methyl(phenyl)amino)-N-(4-methylpyridin-3-yl)pyrazine-2-carboxamide 2,2,2-trifluoroacetate] | 89 | 78 | > 10 | 60 | 31 | – | –
